Data reported in US20230312577A1, “DUAL KINASE-BROMODOMAIN INHIBITORS” (MONASH UNIVERSITY, priority 2020, published 2023).

Assays:
[1] = test system: panel of human multiple myeloma cell lines; test: Apoptosis assay (TMRE, flow cytometry); assay type: cell-based; details: 48 h
Method: A panel of human multiple myeloma cell lines (3×10^5) was incubated in the presence of Cpd 010 or DMSO vehicle control with indicated concentrations for 48 h before flow cytometric analysis of viability using Tetramethylrhodamine ethylester (TMRE) stains. Further apoptotic assay using only OPM2 cells was carried out using Cpd 010 or DMSO with TMRE stains.

BRD2 = molecular target: T1, BRD2 (Homo sapiens, UniProt P25440); test: Cellular thermal shift assay (CETSA) in Ramos cells; assay type: cell-based; details: 20 μM, 40 min, vs DMSO
T1 construct: endogenous in cells; host or cells: Ramos
T1 sequence (P25440 whole entry): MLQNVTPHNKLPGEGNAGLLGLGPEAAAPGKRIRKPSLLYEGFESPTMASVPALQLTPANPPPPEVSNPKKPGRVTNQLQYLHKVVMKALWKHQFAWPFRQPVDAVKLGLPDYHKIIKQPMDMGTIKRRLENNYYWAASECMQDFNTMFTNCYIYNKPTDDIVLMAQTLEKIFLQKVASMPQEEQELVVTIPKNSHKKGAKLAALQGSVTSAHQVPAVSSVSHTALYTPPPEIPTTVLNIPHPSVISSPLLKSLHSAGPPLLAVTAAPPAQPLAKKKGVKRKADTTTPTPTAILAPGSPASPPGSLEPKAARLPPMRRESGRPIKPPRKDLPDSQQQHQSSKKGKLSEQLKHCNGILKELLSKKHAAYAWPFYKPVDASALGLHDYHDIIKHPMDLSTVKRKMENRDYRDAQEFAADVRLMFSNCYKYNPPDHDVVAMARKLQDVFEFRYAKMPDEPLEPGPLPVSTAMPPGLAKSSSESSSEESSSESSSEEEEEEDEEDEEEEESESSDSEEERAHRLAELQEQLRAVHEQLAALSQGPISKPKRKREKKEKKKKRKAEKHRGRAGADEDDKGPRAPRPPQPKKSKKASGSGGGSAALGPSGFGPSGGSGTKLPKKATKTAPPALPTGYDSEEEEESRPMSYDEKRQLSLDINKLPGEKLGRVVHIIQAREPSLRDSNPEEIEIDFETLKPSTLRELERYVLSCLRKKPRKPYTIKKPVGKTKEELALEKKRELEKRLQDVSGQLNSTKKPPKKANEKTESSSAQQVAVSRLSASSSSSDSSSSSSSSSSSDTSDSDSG
Method: Ramos cells (human Burkitt lymphoma cell line) at 20×10^6 were washed in PBS followed by resuspension in 5 mL serum-free RPMI. They were treated either with Cpd 010 or DMSO at 20 μM for 40 min at 37° C. with 5% CO2. Cells were then collected, resuspended in PBS and separated into PCR tubes. They were heated at designated temperature for strictly 3 min followed by another 3 min at 25° C. on ABI Applied Biosystems 9902 Veriti PCR Thermal Cycler. Immediately, they were placed in liquid nitrogen for snap freezing. The samples were freeze-thawed until the final samples were place on ice. They were centrifuged and supernatants were collected. Loading dye was mixed and these were processed as per our Western Blot protocol (see above). The following primary antibodies were used; rabbit BRD4 (Cell Signaling, #13440), rabbit BRD2 (Cell Signaling, #5848), and mouse anti-β-actin (Sigma-Aldrich, clone AC-74).

MYC gene = test: RT-qPCR in OPM2 cells; assay type: cell-based, human; details: 2 h
Method: OPM2 cells (1×10^6) were treated with Cpd 010 or DMSO vehicle at indicated concentrations for 2 h. RNA was extracted from cell pellets using the PureLink™ RNA Mini Kit (ThermoFisher Scientific, #121839025) as per the manufacturer's instructions. cDNA was syn thesised with the SuperScript™ III cDNA synthesis kit (ThermoFisher Scientific, #18080093) according to the manufacturer's instructions. Quantitative PCR analysis of samples was per formed on the QuantStudio7 Flex RT-PCR system (ThermoFisher) with SYBR™ Master Mix (ThermoFisher Scientific, #4472903). L32 were used as the human control gene. Primer se quences were: Homo sapiens MYC F: […] R: […], Homo sapiens L32 F: […] R: TTGTGAGCGATCTCGGCAC. Each RT-qPCR am plification was performed in triplicate (technical triplicates) and repeated 2 times (biological replicates).

[2] = In vivo assessment of maximum tolerated dose (MTD)
Text: The Peter MacCallum Cancer Centre Animal Ethics Committee approved all in vivo procedures in this study. B6.SJL-PtprcPepc/BoyJ (B6.CD45.1) mice were purchased from the Walter and Eliza Hall Institute (Melbourne, VIC). For enhanced solubility, Cpd 010 was reconstituted in double dose with 60% Hydroxypropyl-B-cyclodextrin (HPBCD; Cyclodextrin Technologies Development Inc.) and subsequently diluted with ultrafiltered water in 1:1 ratio prior to injection. Vehicle control was 60% HPBCD subsequently diluted 1:1 ratio with ultrafiltered water prior to injection for the final concentration of 30% HPBCD. MTD was carried out in 6-8 week old, non-tumour bearing female mice starting from 25 mg/kg of Cpd 010, 5 day intraperitoneal injection. Six mice received Cpd 010 and two mice received vehicle (30% HPBCD). Full Blood Examination (FBE), serum, spleen weight and morphological examination for toxicity were assessed on day 8 and day 15. In the absence of toxicity further dose escalation was carried out.

Eμ-Myc lymphoma cells [3] = test: In vivo therapeutic assessment, Eμ-Myc lymphoma transplant; parameters: species or system mouse; details: 45 mg/kg IP, 5 days per week, 3 weeks
Method: For transplantation of Eμ-Myc lymphomas in vivo, cohorts of 6-8 week old B6.SJL-PtprcPepc/BoyJ (B6.CD45.1) mice were inoculated via tail vein injection with 5×10^5 Eμ-Myc lymphoma cells (C57BL/6 (CD45.2)). Cpd 010 and vehicle controls (30% HPBCD) were prepared as above. Three days after lymphoma inoculation, intraperitoneal (IP) injection of compound 10 (45 mg/kg), or vehicle (30% HPBCD) was administered 5 days per week, for a total of 3-weeks of therapy. Detection of tumour cells on peripheral blood was carried out by flow cytometric analysis using the following antibodies; fixable Viability dye-AmCyan (Zom-bie Aqua™ Fixable Viability Kit, BioLegend), anti-mouse CD19-PE (ThermoFisher Scientific, #12-0193-82), anti-mouse CD45R (B220)-APC (ThermoFisher Scientific, #RA3-6B2), anti-mouse CD45.1-PerCP-Cy™5.5 (ThermoFisher Scientific, #A20), anti-mouse CD45.2-FITC (BioLegend, #104). Data were collected on a BD LSR-Fortessa X20 (BD Biosciences). The data were analysed using FlowJo Software, version 10.0.7 (Tree Star).

Eμ-Myc lymphoma cells [4] = test: In vivo tumour burden from a single dose, Eμ-Myc lymphoma; parameters: species or system mouse
Method: (§1) B6.SJL-PtprcPepc/BoyJ (B6.CD45.1) mice were inoculated via tail vein injection with 5×10^5 Eμ-Myc lymphoma cells and left untreated for 12-14 days. A single injection of Cpd 010 at 35-45 mg/kg, or vehicle control (30% HPBCD) was administered. Half of the mice (n=6) were harvested 6 h post injection while the other half (n=6) were harvested 16 h later. Assessment of tumour burden was carried out on single cell suspension of harvested lymph nodes, spleen and blood by flow cytometry using antibodies as above. PD-L1 MFI was assessed by flow cytometry in harvested LNs using anti-mouse PD-L1-PE (ThermoFisher Scientific, clone MIH5) or isotype control antibodies (Mouse IgG2b PE, #559529). Harvested LNs were also washed in PBS and lysates were collected using Laemmli Buffer (AlfaAeser #J61337). They were processed as per our Western Blot protocol (see above) before they were probed for primary pAKT antibodies. Spleen size and weights were also measured between the treatment groups.

[5] = test system: PD-L1 and pAKT (PI3K substrate); test: In vivo target engagement from a single dose (PD-L1, pAKT), Eμ-Myc lymphoma; parameters: species or system mouse; details: single dose 35-45 mg/kg
Method: as §1
In terms of target engagement, PD-L1 expression in the tumour cells were measured in the harvested LN and spleen. As expression of the Myc transgene in Eμ-Myc is not BET-de pendent, MYC cannot be measured as a read-out of BET inhibition, therefore PD-L1 was used as an indicator for BET inhibition. […] Similarly, pAKT (PI3K substrate) was suppressed by Cpd 010 in the lysates made from harvested LN.

## CC(=O)N1c2ccc(-c3ccc(CNC(=O)c4cn5cc(-c6cnc(N)nc6)nc(N6CCOCC6)c5n4)cc3)cc2CC[C@@H]1C [Cpd 010, (S)-N-(4-(1-acetyl-2-methyl-1,2,3,4-tetrahydroquinolin-6-yl)benzyl)-6-(2-aminopyrimidin-5-yl)-8-morpholinoimidazo[1,2-a]pyrazine-2-carboxamide]
[1]; U266 express MYCN instead of c-MYC
  relative sensitivity of the cell lines: OPM2 cells were the most sensitive and U266 was the least sensitive
[1]; six cell lines
  induction of apoptosis in multiple myeloma cell lines: induced dose-dependent apoptosis in five of the six treated cells
BRD2
  clearance of BRD2 protein with increasing temperature: delayed clearance
MYC gene
  MYC mRNA level: significant decrease in MYC mRNA level
[2]; 50 mg/kg
  spleen and body weight: no changes in spleen and body weight
[2]; 50 mg/kg, day 8
  FBE at day 8: moderate thrombocytopenia
[2]; 50 mg/kg, day 15
  FBE on day 15: recovered to the normal level
[2]; B6.SJL-Ptprc<a>Pepc<b>/BoyJ (B6.CD45.1), mouse, in vivo, ip, non-tumour bearing female mice, 5 day intraperitoneal injection
  MTD at 5 day: 50 mg/kg
Eμ-Myc lymphoma cells [3]
  curative response: 90%
Eμ-Myc lymphoma cells [3]; p<0.0001
  survival: statistically significant survival benefit
Eμ-Myc lymphoma cells [4]; single dose 35-45 mg/kg
  size of the spleen: significantly reduced
Eμ-Myc lymphoma cells [4]; single injection 35-45 mg/kg, 16 h
  number of tumour cells in peripheral blood and harvested spleen: marked reduction in number of tumour cells in peripheral blood and harvested spleen
[5]; harvested LN
  PD-L1 expression in tumour cells (indicator for BET inhibition): significantly reduced
[5]; lysates from harvested LN
  pAKT (PI3K substrate): suppressed
